From ChEMBL document CHEMBL4619777, “A New Class of Dengue and West Nile Virus Protease Inhibitors with Submicromolar Activity in Reporter Gene DENV-2 Protease and Viral Replication Assays” (J Med Chem, 2020)

Tests used:
[1] = molecular target: Genome polyprotein (dengue virus type 2) (UniProt P29990); experiment: Inhibition of Dengue virus serotype 2 NS2B-NS3 protease expressed in Escherichia coli BL21 lambda (DE3) cells at 50 uM using Abz-Nle-Lys-Arg-Arg-Ser-3-(NO2)Tyr as substrate preincubated for 15 mins followed by substrate addition and measured for 15 mins by FRET assay relative to control
Genome polyprotein [2] = molecular target: T1, Genome polyprotein (dengue virus type 2, UniProt P29990); experiment: Inhibition of Dengue virus serotype 2 NS2B-NS3 protease expressed in Escherichia coli BL21 lambda (DE3) cells using Abz-Nle-Lys-Arg-Arg-Ser-3-(NO2)Tyr as substrate preincubated for 15 mins followed by substrate addition and measured for 15 mins by FRET assay
[3] = molecular target: Genome polyprotein (West Nile virus) (UniProt P06935); experiment: Inhibition of West Nile virus NS2B-NS3 protease expressed in Escherichia coli BL21 lambda (DE3) cells at 50 uM using Abz-Gly-Leu-Lys-Arg-Gly-Gly-3-(NO2)Tyr as substrate preincubated for 15 mins followed by substrate addition measured for 15 mins by fluorimetric analysis relative to control
Chain of Genome polyprotein (West Nile virus) (P06935 whole entry): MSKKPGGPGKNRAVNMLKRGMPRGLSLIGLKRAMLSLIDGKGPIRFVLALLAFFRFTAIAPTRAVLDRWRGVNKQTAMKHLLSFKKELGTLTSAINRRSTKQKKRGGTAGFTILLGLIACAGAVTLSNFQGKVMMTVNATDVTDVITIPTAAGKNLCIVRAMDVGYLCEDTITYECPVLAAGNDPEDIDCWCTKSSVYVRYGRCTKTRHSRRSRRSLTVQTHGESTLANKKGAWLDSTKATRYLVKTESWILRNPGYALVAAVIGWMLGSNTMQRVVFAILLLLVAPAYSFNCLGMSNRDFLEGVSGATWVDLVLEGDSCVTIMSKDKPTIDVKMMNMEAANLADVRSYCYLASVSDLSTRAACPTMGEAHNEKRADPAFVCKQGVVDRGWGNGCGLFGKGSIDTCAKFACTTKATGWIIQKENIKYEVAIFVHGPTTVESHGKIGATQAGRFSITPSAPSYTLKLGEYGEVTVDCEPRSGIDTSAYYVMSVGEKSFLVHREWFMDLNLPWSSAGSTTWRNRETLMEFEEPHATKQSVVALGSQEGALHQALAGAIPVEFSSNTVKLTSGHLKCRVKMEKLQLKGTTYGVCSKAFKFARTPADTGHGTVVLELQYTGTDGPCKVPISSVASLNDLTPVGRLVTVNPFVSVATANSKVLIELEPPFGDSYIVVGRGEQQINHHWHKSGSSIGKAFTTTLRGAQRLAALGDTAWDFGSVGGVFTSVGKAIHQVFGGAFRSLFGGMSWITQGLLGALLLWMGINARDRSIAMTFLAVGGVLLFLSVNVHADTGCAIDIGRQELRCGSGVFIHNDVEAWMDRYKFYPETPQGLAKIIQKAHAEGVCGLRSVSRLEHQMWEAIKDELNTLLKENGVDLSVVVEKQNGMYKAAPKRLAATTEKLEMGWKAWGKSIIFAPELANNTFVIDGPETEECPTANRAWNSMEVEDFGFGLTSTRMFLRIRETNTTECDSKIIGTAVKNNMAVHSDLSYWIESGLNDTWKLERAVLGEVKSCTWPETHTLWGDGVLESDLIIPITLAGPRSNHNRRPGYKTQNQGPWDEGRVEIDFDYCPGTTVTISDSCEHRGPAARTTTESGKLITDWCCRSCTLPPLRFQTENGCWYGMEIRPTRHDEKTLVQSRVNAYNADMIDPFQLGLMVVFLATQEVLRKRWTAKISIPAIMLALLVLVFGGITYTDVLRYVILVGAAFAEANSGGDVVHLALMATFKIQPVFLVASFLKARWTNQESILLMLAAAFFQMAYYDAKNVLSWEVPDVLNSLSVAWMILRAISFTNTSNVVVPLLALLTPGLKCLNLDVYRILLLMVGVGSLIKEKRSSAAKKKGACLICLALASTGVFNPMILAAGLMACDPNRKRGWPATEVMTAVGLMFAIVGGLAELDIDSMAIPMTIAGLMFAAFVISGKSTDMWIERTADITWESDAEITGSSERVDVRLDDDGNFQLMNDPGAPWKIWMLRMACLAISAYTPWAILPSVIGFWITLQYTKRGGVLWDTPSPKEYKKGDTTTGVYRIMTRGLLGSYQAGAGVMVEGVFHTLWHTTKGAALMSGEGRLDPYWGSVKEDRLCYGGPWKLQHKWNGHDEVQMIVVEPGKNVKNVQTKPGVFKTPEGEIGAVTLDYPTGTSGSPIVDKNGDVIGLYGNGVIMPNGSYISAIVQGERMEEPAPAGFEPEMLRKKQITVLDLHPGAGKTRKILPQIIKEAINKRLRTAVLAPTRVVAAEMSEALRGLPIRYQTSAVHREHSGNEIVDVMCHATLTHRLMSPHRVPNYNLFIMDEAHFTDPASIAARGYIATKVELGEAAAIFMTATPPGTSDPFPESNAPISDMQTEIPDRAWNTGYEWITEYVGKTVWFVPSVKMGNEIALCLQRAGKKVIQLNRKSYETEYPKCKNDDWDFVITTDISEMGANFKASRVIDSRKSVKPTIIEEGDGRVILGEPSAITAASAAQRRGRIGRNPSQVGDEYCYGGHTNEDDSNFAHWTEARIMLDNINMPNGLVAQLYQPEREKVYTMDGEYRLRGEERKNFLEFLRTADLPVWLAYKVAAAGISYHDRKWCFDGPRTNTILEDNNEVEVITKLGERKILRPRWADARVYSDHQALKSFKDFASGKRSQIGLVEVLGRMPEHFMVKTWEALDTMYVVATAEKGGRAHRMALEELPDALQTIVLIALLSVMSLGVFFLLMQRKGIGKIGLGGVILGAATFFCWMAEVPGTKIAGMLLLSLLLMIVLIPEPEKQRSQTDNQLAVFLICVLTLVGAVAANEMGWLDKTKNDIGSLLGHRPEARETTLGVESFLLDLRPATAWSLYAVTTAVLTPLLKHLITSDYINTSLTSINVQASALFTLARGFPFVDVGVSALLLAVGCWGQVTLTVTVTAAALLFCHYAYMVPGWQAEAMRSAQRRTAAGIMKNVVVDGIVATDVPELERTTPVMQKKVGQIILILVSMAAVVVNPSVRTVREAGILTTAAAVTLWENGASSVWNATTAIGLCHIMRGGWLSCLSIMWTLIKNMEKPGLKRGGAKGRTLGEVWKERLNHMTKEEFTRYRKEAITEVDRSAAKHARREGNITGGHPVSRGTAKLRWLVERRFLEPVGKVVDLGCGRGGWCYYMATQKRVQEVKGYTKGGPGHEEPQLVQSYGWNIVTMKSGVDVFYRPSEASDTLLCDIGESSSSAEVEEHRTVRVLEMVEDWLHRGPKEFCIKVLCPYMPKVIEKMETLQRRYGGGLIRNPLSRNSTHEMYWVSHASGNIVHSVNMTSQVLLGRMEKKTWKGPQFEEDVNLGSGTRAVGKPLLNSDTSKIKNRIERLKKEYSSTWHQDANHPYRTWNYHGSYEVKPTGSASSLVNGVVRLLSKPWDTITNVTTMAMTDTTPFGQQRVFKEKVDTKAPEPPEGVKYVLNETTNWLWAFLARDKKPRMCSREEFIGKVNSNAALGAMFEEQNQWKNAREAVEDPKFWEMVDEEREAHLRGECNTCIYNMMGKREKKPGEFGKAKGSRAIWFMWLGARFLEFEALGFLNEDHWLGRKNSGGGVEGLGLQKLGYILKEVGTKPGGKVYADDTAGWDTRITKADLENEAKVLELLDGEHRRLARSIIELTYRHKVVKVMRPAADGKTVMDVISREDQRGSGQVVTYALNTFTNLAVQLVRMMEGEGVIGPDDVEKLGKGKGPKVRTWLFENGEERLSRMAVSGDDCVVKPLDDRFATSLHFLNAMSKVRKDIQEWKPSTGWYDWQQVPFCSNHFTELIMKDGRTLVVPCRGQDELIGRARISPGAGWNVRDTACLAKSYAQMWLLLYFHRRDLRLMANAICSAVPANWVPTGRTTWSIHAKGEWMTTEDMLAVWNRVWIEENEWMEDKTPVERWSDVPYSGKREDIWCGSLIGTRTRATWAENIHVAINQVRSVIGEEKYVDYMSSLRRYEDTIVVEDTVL

Genome polyprotein [4] = molecular target: Genome polyprotein (West Nile virus, UniProt P06935); experiment: Inhibition of West Nile virus NS2B-NS3 protease expressed in Escherichia coli BL21 lambda (DE3) cells using Abz-Gly-Leu-Lys-Arg-Gly-Gly-3-(NO2)Tyr as substrate preincubated for 15 mins followed by substrate addition measured for 15 mins by fluorimetric analysis
Chain of Genome polyprotein (West Nile virus, UniProt P06935) (P06935 1371-1501 limits assumed): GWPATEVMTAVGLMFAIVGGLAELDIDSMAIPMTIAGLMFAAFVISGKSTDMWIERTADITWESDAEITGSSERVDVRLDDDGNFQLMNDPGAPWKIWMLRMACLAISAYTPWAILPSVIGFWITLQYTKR
Chain of Genome polyprotein (West Nile virus, UniProt P06935) (P06935 1502-2120 limits assumed): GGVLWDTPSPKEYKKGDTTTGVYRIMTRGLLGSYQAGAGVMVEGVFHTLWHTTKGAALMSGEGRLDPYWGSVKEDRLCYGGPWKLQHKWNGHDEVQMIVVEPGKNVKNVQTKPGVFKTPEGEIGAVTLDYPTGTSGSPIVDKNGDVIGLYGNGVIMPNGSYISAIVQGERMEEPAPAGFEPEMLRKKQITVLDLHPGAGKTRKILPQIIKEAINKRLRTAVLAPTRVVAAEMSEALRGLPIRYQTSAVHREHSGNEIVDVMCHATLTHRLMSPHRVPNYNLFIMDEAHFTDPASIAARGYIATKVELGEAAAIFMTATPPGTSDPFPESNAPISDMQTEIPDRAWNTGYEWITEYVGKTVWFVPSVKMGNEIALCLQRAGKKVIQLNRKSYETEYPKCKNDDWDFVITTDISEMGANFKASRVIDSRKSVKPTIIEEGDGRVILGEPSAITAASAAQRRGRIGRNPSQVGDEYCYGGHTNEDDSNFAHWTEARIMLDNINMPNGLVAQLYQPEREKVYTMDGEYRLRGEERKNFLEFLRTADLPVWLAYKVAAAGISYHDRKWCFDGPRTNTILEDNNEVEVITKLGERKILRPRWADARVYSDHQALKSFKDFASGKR

[5] = molecular target: Genome polyprotein (dengue virus type 2) (UniProt P29990); experiment: Inhibition of Dengue virus serotype 2 NS2B-NS3 protease transfected in human HeLa cells at 12.5 uM measured after 24 hrs by Renilla-luciferase reporter gene assay relative to control; assay type: cell-based
Genome polyprotein [6] = molecular target: T1, Genome polyprotein; experiment: Inhibition of Dengue virus serotype 2 NS2B-NS3 protease transfected in human HeLa cells measured after 24 hrs by Renilla-luciferase reporter gene assay; assay type: cell-based
[7] = Cytotoxicity against human HeLa cells assessed as reduction in cell viability measured after 24 hrs by celltiter-blue assay; assay type: cell-based
Trypsin = Trypsin (Homo sapiens, UniProt P07477+P07478+P35030); experiment: Inhibition of trypsin (unknown origin) at 50 uM using Boc-Val-Pro-Arg-AMC as substrate preincubated for 15 mins followed by substrate addition and measured for 15 mins by fluorimetric assay relative to control; assay type: protein assay; conditions: 0.25 h, 50 µM
Prothrombin = Prothrombin (Homo sapiens, UniProt P00734); experiment: Inhibition of thrombin (unknown origin) at 25 uM using Boc-Val-Pro-Arg-AMC as substrate preincubated for 15 mins followed by substrate addition and measured for 15 mins by fluorimetric assay; conditions: 0.25 h
[8] = Permeability of the compound assessed as drug level in donor plate at 200 uM measured after 5 hrs at pH 7.4 by PAMPA; assay type: ADME; conditions: pH 7.4, 5 h
Huh-7 = experiment: Cytotoxicity against human HuH7 cells assessed as reduction in cell viability at 12 uM measured after 48 hrs by celltiter-blue assay; assay type: cell-based; conditions: huh-7, 48 h
dengue virus type 2 = experiment: Antiviral activity against DENV2 infected in human HuH7 cells assessed as reduction in virus titer at 12.5 uM measured after 48 hrs relative to control; assay type: functional; conditions: Huh-7, 48 h
[9] = Permeability of the compound assessed as drug level in acceptor plate at 200 uM measured after 5 hrs at pH 7.4 by PAMPA; assay type: ADME; conditions: pH 7.4, 5 h
[10] = Permeability of the compound at 200 uM measured after 5 hrs at pH 7.4 by PAMPA; assay type: ADME; conditions: read-out: permeability
[11] = Permeability of the compound assessed as mass retention at 200 uM measured after 5 hrs at pH 7.4 by PAMPA; assay type: ADME; conditions: pH 7.4, 5 h

N=C(N)Nc1ccc(CNC(=O)[C@@H](NC(=O)Cc2ccc(-c3ccccc3)cc2)c2ccc(OCc3ccccc3)cc2)cc1.O=C(O)C(F)(F)F
inhibition [1]: 101%
IC50 (Genome polyprotein [2]): 1.3 µM
inhibition [3]: 99.3%
IC50 (Genome polyprotein [4]): 1.8 µM
inhibition [5]: 16.3%
EC50 (Genome polyprotein [6]): 20 µM
CC50 at 24 h [7]: > 50 µM
inhibition (INH) (Trypsin): Not Active
inhibition (INH) (Prothrombin): Not Active
Drug uptake ([8]; BLD = below limit of detection): Bld

COc1cccc(COc2ccc(C(=O)N[C@H](C(=O)NCc3ccc(NC(=N)N)cc3)c3ccc(OCc4ccccc4)cc3)cc2)c1.O=C(O)C(F)(F)F
inhibition [1]: 98.4%
IC50 (Genome polyprotein [2]): 4.7 µM
inhibition [3]: 102%
IC50 (Genome polyprotein [4]): 7.4 µM
inhibition [5]: 67.6%
EC50 (Genome polyprotein [6]): 2.9 µM
CC50 at 24 h [7]: > 12.5 µM
inhibition (INH) (Trypsin): Not Active
inhibition (INH) (Prothrombin): Not Active
Activity (Huh-7): Non-Toxic
inhibition at 12.5 µM (dengue virus type 2): 21.9%
Drug uptake ([8]; BLD = below limit of detection): Bld

O=C1NC(=O)C(c2ccccc2)(c2ccccc2)N1 [PHENYTOIN]
Drug uptake [9]: 23.4 µM
Drug uptake [8]: 149.6 µM
Papp at 5 h, 200 µM [10]: 6 ×10⁻⁶ cm/s
R% [11]: 17.4%

N=C(N)Nc1ccc(CNC(=O)[C@@H](NC(=O)c2ccc(-c3ccc(Cl)cc3)cc2)c2ccc(OCc3ccccc3)cc2)cc1.O=C(O)C(F)(F)F
inhibition [1]: 98.7%
IC50 (Genome polyprotein [2]): 2 µM
inhibition [3]: 99.9%
IC50 (Genome polyprotein [4]): 3.7 µM
inhibition [5]: 56.6%
EC50 (Genome polyprotein [6]): 7.1 µM
CC50 at 24 h [7]: > 50 µM
inhibition (INH) (Trypsin): Not Active
inhibition (INH) (Prothrombin): Not Active
Activity (Huh-7): Non-Toxic
inhibition at 12.5 µM (dengue virus type 2): 79.9%

CCCCCC(=O)N[C@H](C(=O)NCCCCCCNC(=N)N)c1ccc(OCc2ccccc2)cc1
inhibition [1]: < 10%
inhibition [3]: 28.3%
inhibition [5]: 61%
EC50 (Genome polyprotein [6]): 7.7 µM
CC50 at 24 h [7]: > 50 µM
inhibition (INH) (Trypsin): Not Active
inhibition (INH) (Prothrombin): Not Active

CCCCCC(=O)N[C@H](C(=O)NCc1ccc(NC(=N)N)cc1)c1ccc(OCc2ccc(C(F)(F)F)cc2)cc1.O=C(O)C(F)(F)F
inhibition [1]: 96.3%
IC50 (Genome polyprotein [2]): 7.4 µM
inhibition [3]: 100%
IC50 (Genome polyprotein [4]): 12 µM
inhibition [5]: 66%
EC50 (Genome polyprotein [6]): 3 µM
CC50 at 24 h [7]: > 50 µM
inhibition (INH) (Trypsin): Not Active
inhibition (INH) (Prothrombin): Not Active
Activity (Huh-7): Non-Toxic
inhibition at 12.5 µM (dengue virus type 2): 60.3%

CCCCCC(=O)N[C@H](C(=O)NCCCCCCN)c1ccc(OCc2ccccc2)cc1
inhibition [1]: 18.1%
inhibition [3]: < 10%
inhibition [5]: 45.8%
EC50 (Genome polyprotein [6]): 13 µM
CC50 at 24 h [7]: > 50 µM
inhibition (INH) (Trypsin): Not Active
inhibition (INH) (Prothrombin): Not Active

Cn1c(=O)c2c(ncn2C)n(C)c1=O [CAFFEINE]
Drug uptake [9]: 31.9 µM
Drug uptake [8]: 159.5 µM
Papp at 5 h, 200 µM [10]: 7.7 ×10⁻⁶ cm/s
R% [11]: 9.6%

CCCCCC(=O)N[C@H](C(=O)NCc1ccc(N)nc1)c1ccc(OCc2ccccc2)cc1.O=C(O)C(F)(F)F
inhibition [1]: 22.6%
inhibition [3]: 37.8%
inhibition [5]: 57%
EC50 (Genome polyprotein [6]): 13 µM
CC50 at 24 h [7]: > 50 µM
inhibition (INH) (Trypsin): Not Active
inhibition (INH) (Prothrombin): Not Active

CCCCCC(=O)N[C@@H](C(=O)NCc1ccc(NC(=N)N)cc1)c1ccc(OCc2ccc(Cl)c(Cl)c2)cc1.O=C(O)C(F)(F)F
inhibition [1]: 97.3%
IC50 (Genome polyprotein [2]): 5.7 µM
inhibition [3]: 101%
IC50 (Genome polyprotein [4]): 8.3 µM
inhibition [5]: 51%
EC50 (Genome polyprotein [6]): 16 µM
CC50 at 24 h [7]: > 50 µM
inhibition (INH) (Trypsin): Not Active
inhibition (INH) (Prothrombin): Not Active

NC(=O)N1c2ccccc2C=Cc2ccccc21 [CARBAMAZEPINE]
Drug uptake [9]: 35.7 µM
Drug uptake [8]: 171.6 µM
Papp at 5 h, 200 µM [10]: 8.1 ×10⁻⁶ cm/s
R% [11]: 2.3%

CCCCCC(=O)N[C@H](C(=O)NCc1ccc(NC(=N)N)nc1)c1ccc(OCc2ccccc2)cc1.O=C(O)C(F)(F)F
inhibition [1]: 93.9%
IC50 (Genome polyprotein [2]): 19 µM
inhibition [3]: 96.8%
IC50 (Genome polyprotein [4]): 23 µM
inhibition [5]: 67.7%
EC50 (Genome polyprotein [6]): 5.9 µM
CC50 at 24 h [7]: > 50 µM
inhibition (INH) (Trypsin): Not Active
inhibition (INH) (Prothrombin): Not Active
Activity (Huh-7): Non-Toxic
inhibition at 12.5 µM (dengue virus type 2): 31.5%

CCCCCC(=O)N[C@H](C(=O)NCc1cccc(CN)c1)c1ccc(OCc2ccccc2)cc1
inhibition [1]: 97.2%
IC50 (Genome polyprotein [2]): 30 µM
inhibition [3]: 85.4%
IC50 (Genome polyprotein [4]): 27 µM
inhibition [5]: 71%
EC50 (Genome polyprotein [6]): 4.2 µM
CC50 at 24 h [7]: > 12.5 µM
inhibition (INH) (Trypsin): Not Active
inhibition (INH) (Prothrombin): Not Active

N=C(N)NCc1ccc(CNC(=O)[C@H](NC(=O)c2ccc(Oc3ccccc3)cc2)c2ccc(OCc3ccc(Cl)c(Cl)c3)cc2)cc1.O=C(O)C(F)(F)F
inhibition [1]: 99.8%
IC50 (Genome polyprotein [2]): 2.5 µM
inhibition [3]: 99.6%
IC50 (Genome polyprotein [4]): 5.5 µM
inhibition [5]: 36%
CC50 at 24 h [7]: > 50 µM
inhibition (INH) (Trypsin): Not Active
inhibition (INH) (Prothrombin): Not Active
Drug uptake ([8]; BLD = below limit of detection): Bld

CCCCCC(=O)N[C@H](C(=O)NCc1ccc(CNC(=N)N)cc1)c1ccc(OCc2ccccc2)cc1.O=C(O)C(F)(F)F
inhibition [1]: 104%
IC50 (Genome polyprotein [2]): 14 µM
inhibition [3]: 98.6%
IC50 (Genome polyprotein [4]): 37 µM
inhibition [5]: 66.3%
EC50 (Genome polyprotein [6]): 6.3 µM
CC50 at 24 h [7]: > 50 µM
inhibition (INH) (Trypsin): Not Active
inhibition (INH) (Prothrombin): Not Active
Activity (Huh-7): Non-Toxic
inhibition at 12.5 µM (dengue virus type 2): 79.5%

CCCCCC(=O)N[C@H](C(=O)NCc1ccc(NC(=N)N)cc1)c1ccc(OCc2c(Cl)cccc2Cl)cc1.O=C(O)C(F)(F)F
inhibition [1]: 97.5%
IC50 (Genome polyprotein [2]): 2.9 µM
inhibition [3]: 101%
IC50 (Genome polyprotein [4]): 6.2 µM
inhibition [5]: 41.5%
CC50 at 24 h [7]: > 50 µM
inhibition (INH) (Trypsin): Not Active
inhibition (INH) (Prothrombin): Not Active
Drug uptake ([8]; BLD = below limit of detection): Bld

CCCCCC(=O)N[C@H](C(=O)Nc1ccc2[nH]ncc2c1)c1ccc(OCc2ccccc2)cc1
inhibition [1]: 22.4%
inhibition [3]: 26%
inhibition [5]: 65.4%
EC50 (Genome polyprotein [6]): 6.9 µM
CC50 at 24 h [7]: > 50 µM
inhibition (INH) (Trypsin): Not Active
inhibition (INH) (Prothrombin): Not Active

CCCCCCCCCC(=O)N[C@H](C(=O)NCc1ccc(NC(=N)N)cc1)c1ccc(OCc2ccccc2)cc1.O=C(O)C(F)(F)F
inhibition [1]: 99.8%
IC50 (Genome polyprotein [2]): 2.3 µM
inhibition [3]: 102%
IC50 (Genome polyprotein [4]): 5 µM
inhibition [5]: 65.8%
EC50 (Genome polyprotein [6]): 2.3 µM
CC50 at 24 h [7]: > 50 µM
inhibition (INH) (Trypsin): Not Active
inhibition (INH) (Prothrombin): Not Active
Drug uptake ([8]; BLD = below limit of detection): Bld

CCCCCC(=O)N[C@H](C(=O)NCc1ccc(CN(C)C)cc1)c1ccc(OCc2ccccc2)cc1
inhibition [1]: < 10%
inhibition [3]: < 10%
inhibition [5]: 65.7%
EC50 (Genome polyprotein [6]): 6.7 µM
CC50 at 24 h [7]: > 12.5 µM
inhibition (INH) (Trypsin): Not Active
inhibition (INH) (Prothrombin): Not Active

N=C(N)Nc1ccc(CNC(=O)[C@@H](NC(=O)c2cccc(Oc3ccccc3)c2)c2ccc(OCc3ccccc3)cc2)cc1.O=C(O)C(F)(F)F
inhibition [1]: 101%
IC50 (Genome polyprotein [2]): 4.9 µM
inhibition [3]: 99.8%
IC50 (Genome polyprotein [4]): 6.1 µM
inhibition [5]: 67.5%
EC50 (Genome polyprotein [6]): 7.3 µM
CC50 at 24 h [7]: > 25 µM
inhibition (INH) (Trypsin): Not Active
inhibition (INH) (Prothrombin): Not Active
Drug uptake [9]: 1.1 µM
Drug uptake [8]: 168.9 µM
Papp at 5 h, 200 µM [10]: 0.2 ×10⁻⁶ cm/s
R% [11]: 15.2%

N=C(N)Nc1ccc(CNC(=O)[C@@H](NC(=O)c2ccc(OCc3ccccc3)cc2)c2ccc(OCc3ccccc3)cc2)cc1.O=C(O)C(F)(F)F
inhibition [1]: 106%
IC50 (Genome polyprotein [2]): 4.4 µM
inhibition [3]: 98.7%
IC50 (Genome polyprotein [4]): 7.1 µM
inhibition [5]: 69.8%
EC50 (Genome polyprotein [6]): 2.1 µM
CC50 at 24 h [7]: > 12.5 µM
inhibition (INH) (Trypsin): Not Active
inhibition (INH) (Prothrombin): Not Active
Activity (Huh-7): Non-Toxic
inhibition at 12.5 µM (dengue virus type 2): 27.4%
Drug uptake ([8]; BLD = below limit of detection): Bld
